Source: patent publication US10550105B2 (Ribon Therapeutics Inc., priority 2018, dated 2020)
pIC50: −log10 of the molar value.

Biological target: PARP7 (Homo sapiens (Human), UniProt Q7Z3E1)
Assay: Enzymatic assay for inhibition of PARP7: TR-FRET displacement of biotinylated Probe A from the TIPARP active site
Type: binding
Conditions: Table A-1
Procedure, shortened: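 Percent inhibition derives from the ratio of 665 to 615 nm emission, which reports how much Probe A remains bound to TIPARP. Plates sat 30 min at 25° C before the time-resolved read (320 nm excitation).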

Sequence of PARP7 (Q7Z3E1 whole entry): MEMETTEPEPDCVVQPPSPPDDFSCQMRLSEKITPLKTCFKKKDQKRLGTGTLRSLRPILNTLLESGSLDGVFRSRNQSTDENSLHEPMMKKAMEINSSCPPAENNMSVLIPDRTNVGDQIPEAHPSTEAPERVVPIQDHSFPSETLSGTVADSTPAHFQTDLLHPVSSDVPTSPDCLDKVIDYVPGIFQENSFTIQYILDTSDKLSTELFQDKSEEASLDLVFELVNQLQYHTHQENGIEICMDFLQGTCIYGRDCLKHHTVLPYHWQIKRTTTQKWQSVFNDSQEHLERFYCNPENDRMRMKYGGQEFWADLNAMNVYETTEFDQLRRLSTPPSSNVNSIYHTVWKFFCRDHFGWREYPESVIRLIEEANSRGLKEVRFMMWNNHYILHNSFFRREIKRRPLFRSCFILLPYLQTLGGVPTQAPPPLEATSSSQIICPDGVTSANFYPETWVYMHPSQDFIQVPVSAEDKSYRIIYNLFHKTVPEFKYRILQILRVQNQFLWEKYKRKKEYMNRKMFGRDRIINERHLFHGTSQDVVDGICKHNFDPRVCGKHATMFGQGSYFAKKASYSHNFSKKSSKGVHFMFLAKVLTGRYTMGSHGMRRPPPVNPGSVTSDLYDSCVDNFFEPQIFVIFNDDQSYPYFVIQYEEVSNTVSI

| SMILES | pIC50 |
| --- | --- |
| N#Cc1ccc(N2CCN(C(=O)c3ccc(OCC4CCN(c5cn[nH]c(=O)c5C(F)(F)F)C4)cc3)CC2)nc1 (centres unmarked) [Example 477, 6-(4-(4-((1-(6-Oxo-5-(trifluoromethyl)-1,6-dihydropyridazin-4-yl)pyrrolidin-3-yl)methoxy)benzoyl)piperazin-1-yl)nicotinonitrile] | > 7.00 |
| N#Cc1ccc(N2CCN(C(=O)c3cccc(OCc4cccc5c4CN(c4cn[nH]c(=O)c4C(F)(F)F)C5)c3)CC2)nc1 [Example 488, 6-(4-(3-((2-(6-Oxo-5-(trifluoromethyl)-1,6-dihydropyridazin-4-yl)isoindolin-4-yl)methoxy)benzoyl)piperazin-1-yl)nicotinonitrile] | > 7.00 |
| CC(=O)N1CCC(COc2cc3c(cc2F)CN(c2cn[nH]c(=O)c2C(C)C)C3)CC1 [Example 489, 5-(5-((1-Acetylpiperidin-4-yl)methoxy)-6-fluoroisoindolin-2-yl)-4-isopropylpyridazin-3(2H)-one] | ≤ 6.00 |
| N#Cc1ccc(N2CCN(C(=O)COCCOc3cccc4c3CN(c3cn[nH]c(=O)c3C(F)(F)F)C4)CC2)nc1 [Example 490, 6-(4-(2-(2-((2-(6-Oxo-5-(trifluoromethyl)-1,6-dihydropyridazin-4-yl)isoindolin-4-yl)oxy)ethoxy)acetyl)piperazin-1-yl)nicotinonitrile] | > 7.00 |
| N#Cc1ccc(N2CCN(C(=O)CNCCOc3cccc4c3CN(c3cn[nH]c(=O)c3C(F)(F)F)C4)CC2)nc1 [Example 491, 6-(4-((2-((2-(6-Oxo-5-(trifluoromethyl)-1,6-dihydropyridazin-4-yl)isoindolin-4-yl)oxy)ethyl)glycyl)piperazin-1-yl)nicotinonitrile] | > 7.00 |
| N#Cc1ccc(N2CCN(C(=O)CCNCCOc3cccc4c3CN(c3cn[nH]c(=O)c3C(F)(F)F)C4)CC2)nc1 [Example 492, 6-(4-(3-((2-((2-(6-Oxo-5-(trifluoromethyl)-1,6-dihydropyridazin-4-yl)isoindolin-4-yl)oxy)ethyl)amino)propanoyl)piperazin-1-yl)nicotinonitrile] | > 7.00 |
| CN(CCOc1cccc2c1CN(c1cn[nH]c(=O)c1C(F)(F)F)C2)CCC(=O)N1CCN(c2ccc(C#N)cn2)CC1 [Example 493, 6-(4-(3-(Methyl(2-((2-(6-oxo-5-(trifluoromethyl)-1,6-dihydropyridazin-4-yl)isoindolin-4-yl)oxy)ethyl)amino)propanoyl)piperazin-1-yl)nicotinonitrile] | > 7.00 |
| N#Cc1ccc(N2CCN(C(=O)c3ccc(Oc4cccc5c4CN(c4cn[nH]c(=O)c4C(F)(F)F)C5)cc3)CC2)nc1 [Example 494, 6-(4-(4-((2-(6-Oxo-5-(trifluoromethyl)-1,6-dihydropyridazin-4-yl)isoindolin-4-yl)oxy)benzoyl)pipoerazin-1-yl)nicotinonitrile] | > 7.00 |
| N#Cc1ccc(N2CCN(C(=O)CCOCc3cccc4c3CN(c3cn[nH]c(=O)c3C(F)(F)F)C4)CC2)nc1 [Example 495, 6-(4-(3-((2-(6-Oxo-5-(trifluoromethyl)-1,6-dihydropyridazin-4-yl)isoindolin-4-yl)methoxy)propanoyl)piperazin-1-yl)nicotinonitrile] | > 7.00 |
| N#Cc1ccc(N2CCN(C(=O)CCCOCc3cccc4c3CN(c3cn[nH]c(=O)c3C(F)(F)F)C4)CC2)nc1 [Example 496, 6-(4-(4-((2-(6-Oxo-5-(trifluoromethyl)-1,6-dihydropyridazin-4-yl)isoindolin-4-yl)methoxy)butanoyl)piperazin-1-yl)nicotinonitrile] | > 7.00 |
| O=c1[nH]ncc(N2C[C@H]3CCCN[C@H]3C2)c1C(F)(F)F [Example 497, 5-((4aR,7aR)-Octahydro-6H-pyrrolo[3,4-b]pyridin-6-yl)-4-(trifluoromethyl)pyridazin-3(2H)-one] | ≤ 6.00 |
| O=c1[nH]ncc(N2C[C@@H]3CCCN[C@@H]3C2)c1C(F)(F)F [Example 498, 5-((4aS,7aS)-Octahydro-6H-pyrrolo[3,4-b]pyridin-6-yl)-4-(trifluoromethyl)pyridazin-3(2H)-one] | ≤ 6.00 |
| N#Cc1ccc(N2CCN(C(=O)COCCNc3cn[nH]c(=O)c3C(F)(F)F)CC2)nc1 [Example 499, 6-[4-[2-(2-[[6-Oxo-5-(trifluoromethyl)-1,6-dihydropyridazin-4-yl]amino]ethoxy)acetyl]piperazin-1-yl]pyridine-3-carbonitrile] | > 7.00 |
| N#Cc1ccc(N2CCN(C(=O)CCNCCOc3cn[nH]c(=O)c3C(F)(F)F)CC2)nc1 [Example 502] | ≤ 6.00 |

The next lines start with the values.

| pIC50 | SMILES |
| --- | --- |
| > 7.00 | N#Cc1cnc(N2CCN(C(=O)CCOC[C@@H]3CCCN3c3cn[nH]c(=O)c3C(F)(F)F)CC2)cn1 [Example 474, (S)-5-(4-(3-((1-(6-Oxo-5-(trifluoromethyl)-1,6-dihydropyridazin-4-yl)pyrrolidin-2-yl)methoxy)propanoyl)piperazin-1-yl)pyrazine-2-carbonitrile] |
| > 7.00 | N#Cc1ccc(N2CCN(C(=O)CCOC[C@@H]3CCCN3c3cn[nH]c(=O)c3C(F)(F)F)CC2)cn1 [Example 475, (S)-5-(4-(3-((1-(6-Oxo-5-(trifluoromethyl)-1,6-dihydropyridazin-4-yl)pyrrolidin-2-yl)methoxy)propanoyl)piperazin-1-yl)picolinonitrile] |
| 6.00 to 7.00 | N#Cc1ncc(N2CCN(C(=O)CCOC[C@@H]3CCCN3c3cn[nH]c(=O)c3C(F)(F)F)CC2)cn1 [Example 476, (S)-5-(4-(3-((1-(6-Oxo-5-(trifluoromethyl)-1,6-dihydropyridazin-4-yl)pyrrolidin-2-yl)methoxy)propanoyl)piperazin-1-yl)pyrimidine-2-carbonitrile] |
| 6.00 to 7.00 | N#Cc1ccc(N2CCN(C(=O)COCCOCC3CCN(c4cn[nH]c(=O)c4C(F)(F)F)C3)CC2)nc1 (centres unmarked) [Example 478, 6-(4-(2-(2-((1-(6-Oxo-5-(trifluoromethyl)-1,6-dihydropyridazin-4-yl)pyrrolidin-3-yl)methoxy)ethoxy)acetyl)piperazin-1-yl)nicotinonitrile] |
| 6.00 to 7.00 | N#Cc1ccc(N2CCN(C(=O)C34C5C6C3C3C4C5C63COC[C@@H]3CCCN3c3cn[nH]c(=O)c3C(F)(F)F)CC2)nc1 (stereo partly drawn) [Example 479, (S)-6-(4-(4-(((1-(6-Oxo-5-(trifluoromethyl)-1,6-dihydropyridazin-4-yl)pyrrolidin-2-yl)methoxy)methyl)cubane-1-carbonyl)piperazin-1-yl)nicotinonitrile] |
| > 7.00 | Cc1c(N2CCC[C@H]2COCCC(=O)N2CCN(c3ccc(C#N)cn3)CC2)cn[nH]c1=O [Example 480, (S)-6-(4-(3-((1-(5-Methyl-6-oxo-1,6-dihydropyridazin-4-yl)pyrrolidin-2-yl)methoxy)propanoyl)piperazin-1-yl)nicotinonitrile] |
| > 7.00 | O=C(CCOC[C@@H]1CCCN1c1cn[nH]c(=O)c1C(F)(F)F)N1CCN(c2ccc(Cl)cn2)CC1 [Example 481, (S)-5-(2-((3-(4-(5-Chloropyridin-2-yl)piperazin-1-yl)-3-oxopropoxy)methyl)pyrrolidin-1-yl)-4-(trifluoromethyl)pyridazin-3(2H)-one] |
| > 7.00 | O=C(CCOC[C@@H]1CCCN1c1cn[nH]c(=O)c1C(F)(F)F)N1CCN(c2ncc(Cl)cn2)CC1 [Example 482, (S)-5-(2-((3-(4-(5-Chloropyrimidin-2-yl)piperazin-1-yl)-3-oxopropoxy)methyl)pyrrolidin-1-yl)-4-(trifluoromethyl)pyridazin-3(2H)-one] |
| > 7.00 | CS(=O)(=O)c1ccc(N2CCN(C(=O)CCOC[C@@H]3CCCN3c3cn[nH]c(=O)c3C(F)(F)F)CC2)nc1 [Example 483, (S)-5-(2-((3-(4-(5-(Methylsulfonyl)pyridin-2-yl)piperazin-1-yl)-3-oxopropoxy)methyl)pyrrolidin-1-yl)-4-(trifluoromethyl)pyridazin-3(2H)-one] |
| > 7.00 | CC1(C)C[C@@H](COCCC(=O)N2CCN(c3ccc(C#N)cn3)CC2)N(c2cn[nH]c(=O)c2C(F)(F)F)C1 [Example 484, (S)-6-(4-(3-((4,4-Dimethyl-1-(6-oxo-5-(trifluoromethyl)-1,6-dihydropyridazin-4-yl)pyrrolidin-2-yl)methoxy)propanoyl)piperazin-1-yl)nicotinonitrile] |
| > 7.00 | N#Cc1ccc(N2CCN(C(=O)CCOC[C@@H]3C[C@H](N)CN3c3cn[nH]c(=O)c3C(F)(F)F)CC2)nc1 [Example 485, 6-(4-(3-(((2S,4S)-4-Amino-1-(6-oxo-5-(trifluoromethyl)-1,6-dihydropyridazin-4-yl)pyrrolidin-2-yl)methoxy)propanoyl)piperazin-1-yl)nicotinonitrile] |
| > 7.00 | N#Cc1ccc(N2CCN(C(=O)CCOC[C@@H]3C[C@@H](N)CN3c3cn[nH]c(=O)c3C(F)(F)F)CC2)nc1 [Example 486, 6-(4-(3-(((2S,4R)-4-Amino-1-(6-oxo-5-(trifluoromethyl)-1,6-dihydropyridazin-4-yl)pyrrolidin-2-yl)methoxy)propanoyl)piperazin-1-yl)nicotinonitrile] |
| 6.00 to 7.00 | N#Cc1ccc(N2CCN(C(=O)CCO[C@H]3C[C@@H](CN)N(c4cn[nH]c(=O)c4C(F)(F)F)C3)CC2)nc1 [Example 487, 6-(4-(3-(((3S,5S)-5-(Aminomethyl)-1-(6-oxo-5-(trifluoromethyl)-1,6-dihydropyridazin-4-yl)pyrrolidin-3-yl)oxy)propanoyl)piperazin-1-yl)nicotinonitrile] |
| > 7.00 | N#Cc1ccc(N2CCN(C(=O)CCOCCNc3cn[nH]c(=O)c3C(F)(F)F)CC2)nc1 [Example 500, 6-[4-[3-(2-[[6-Oxo-5-(trifluoromethyl)-1,6-dihydropyridazin-4-yl]amino]ethoxy)propanoyl]piperazin-1-yl]pyridine-3-carbonitrile] |
| > 7.00 | N#Cc1ccc(N2CCN(C(=O)CCOCCOc3cn[nH]c(=O)c3C(F)(F)F)CC2)nc1 [Example 501, 6-[4-[3-(2-[[6-Oxo-5-(trifluoromethyl)-1,6-dihydropyridazin-4-yl]oxy]ethoxy)propanoyl]piperazin-1-yl]pyridine-3-carbonitrile] |
